Assay results as given in paper PMC6880192, “Structure–Effect Relationships of Novel Semi-Synthetic Cannabinoid Derivatives” (Frontiers in Pharmacology, 2019).
Entries after “also recorded” stand apart in the source; their conditions may differ.

Experiments:
CB2-receptor [1] = biological target: T1, CB2-receptor (Homo sapiens, UniProt P34972); assay: Competition binding against [3H]-CP55940, CB2 membranes; conditions: for Selectivity CB2/CB1: ratio of Ki values; for Ki: mean ± SEM, n = 3, radioligand [3H]-CP55940
T1 construct: expressed in transfected cells; host or cells: CHO cells, stably transfected with CB2 cDNA (from IMIBIC) and transiently with CRE-luc
T1 sequence (P34972 whole entry): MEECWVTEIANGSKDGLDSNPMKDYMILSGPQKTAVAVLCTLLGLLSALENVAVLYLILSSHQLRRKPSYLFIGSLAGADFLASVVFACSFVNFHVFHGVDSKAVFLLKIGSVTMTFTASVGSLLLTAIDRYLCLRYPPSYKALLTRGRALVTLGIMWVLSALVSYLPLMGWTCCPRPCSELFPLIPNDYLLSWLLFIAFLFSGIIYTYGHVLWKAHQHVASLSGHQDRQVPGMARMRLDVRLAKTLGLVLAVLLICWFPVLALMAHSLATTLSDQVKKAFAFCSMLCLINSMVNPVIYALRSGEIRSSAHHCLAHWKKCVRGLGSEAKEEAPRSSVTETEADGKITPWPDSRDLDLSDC

CB1-receptor [2] = biological target: T2, CB1-receptor (Homo sapiens, UniProt P21554); assay: cAMP-dependent luciferase assay in CHO-CB1-CRE-luc cells; type: cell-based; conditions: for Effect on CB1: CHO-CB1-CRE-luc, summary classification; for CB1-receptor antagonistic activity (fold induction of CRE-luc): 15 min pre-incubation, then 1 µmol/L WIN for 6 h; for CB1-receptor agonistic activity (fold induction of CRE-luc): 6 h stimulation with test compound
T2 construct: expressed in transfected cells; host or cells: CHO cells, stably transfected with CB1 cDNA (from IMIBIC) and transiently with CRE-luc
T2 sequence (P21554 whole entry): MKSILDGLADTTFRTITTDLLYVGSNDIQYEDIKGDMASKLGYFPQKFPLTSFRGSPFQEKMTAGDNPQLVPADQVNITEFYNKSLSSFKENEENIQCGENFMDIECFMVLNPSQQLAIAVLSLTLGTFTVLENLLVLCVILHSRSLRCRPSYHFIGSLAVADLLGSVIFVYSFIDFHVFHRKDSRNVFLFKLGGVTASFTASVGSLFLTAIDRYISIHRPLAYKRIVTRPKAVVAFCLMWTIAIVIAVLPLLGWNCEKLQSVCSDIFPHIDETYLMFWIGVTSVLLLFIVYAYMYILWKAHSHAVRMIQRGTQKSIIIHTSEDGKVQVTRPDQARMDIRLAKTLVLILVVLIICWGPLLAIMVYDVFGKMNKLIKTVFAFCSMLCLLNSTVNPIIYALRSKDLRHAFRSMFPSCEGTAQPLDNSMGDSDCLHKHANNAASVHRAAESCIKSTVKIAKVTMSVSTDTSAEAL
Experimental: (§1) Briefly, CHO cells were stably transfected with CB1- and CB2-receptor complementary DNAs (cDNAs) (kindly provided by IMIBIC). Around 10^5 transfected cells per milliliter were seeded in 24-well plates and transiently transfected with the plasmid CRE-luc using Roti-Fect (Carl Roth, Karlsruhe) following the manufacturer’s instructions. The cells were harvested after 24 h. Two transfected cell types resulted: CHO-CB1-CRE-luc and CHO-CB2-CRE-luc.
(§2) To test for agonistic activity at the CB1-receptor, the CHO-CB1-CRE-luc cells were stimulated for 6 h with increasing concentrations of the test compounds ([Bouaboula et al. 1997]). Forskolin (FSK), a strong CB-receptor-independent activator of adenylyl-cyclase was used at 10 µmol/L as a positive control. To investigate the antagonistic activity, the CHO-CB1-CRE-luc cells were pre-incubated for 15 min with the test compounds before stimulation for 6 h with 1 µmol/L WIN ([Zheng et al. 2013]). To investigate CB2-receptor agonistic activity, CHO-CB2-CRE-luc cells were pre-incubated for 15 min with increasing concentrations of the test substances and then for 6 h with 10 µmol/L FSK. WIN, a non-specific agonist at CB2-receptors, was used as a positive control. To confirm CB2-receptor agonistic activities of the test compounds, CHO-CB2-CRE-luc cells were pre-incubated with the specific CB2-receptor antagonist AM630 (1 µmol/L, 6-iodopravadoline; Cayman, distributed by Biozol, Hamburg) ([Ross et al. 1999]; [Zheng et al. 2013]) and then treated with increasing concentrations of the test substances.
(§3) After the stimulations and incubations, cells were lysed in a solution of 25 mmol Tris-phosphate (pH = 7.8), 8 mmol MgCl2, 1 mmol dithiothreitol (DTT), 1% Triton X-100, and 7% glycerol. The luciferase activity was measured with a Luciferase Assay Kit (Promega, Madison) according to the manufacturer’s instructions using an AutoLumat LB 9501 (Berthold Technologies, Bad Wildbad).

CB2-receptor [3] = biological target: T1, CB2-receptor; assay: cAMP-dependent luciferase assay in CHO-CB2-CRE-luc cells; type: cell-based; conditions: for CB2-receptor agonistic activity (fold induction of CRE-luc): 15 min pre-incubation, then 10 µmol/L FSK for 6 h; for Effect on CB2: CHO-CB2-CRE-luc, summary classification; for CB2 agonistic effect compared with positive control WIN: same dose as 1 µmol/L WIN
Experimental: as §1, §2, §3

NFAT = assay: PMA/IO-induced NFAT-luc activation in Jurkat T-cells; type: cell-based; conditions: 0.5–25 µmol/L
Experimental: (§4) Jurkat T-cells (10^6 cells per milliliter) were transiently transfected with plasmids that contained an NF-κB-dependent (KBF-luc) or NFAT-dependent (NFAT-luc) promotors fused to the luciferase gene using Lipofectin (Life Technologies, Carlsbad) according to the manufacturer’s instructions ([Yano et al. 1987]; [Durand et al. 1988]). Twenty-four hours after transfection, cells were stimulated for 30 min with increasing doses of the test compounds or WIN as a control (Tocris, Bristol). Then PMA (50 ng/ml)—for NFAT-luc—plus ionomycin (0.5 µg/ml) (Sigma-Aldrich, St. Louis) was added, followed by a 6 h incubation period.
as §3

primary human monocytes = assay: Anti-inflammatory effect on LPS-treated monocytes (ELISA); type: cell-based
Experimental: Human peripheral blood monocytes were prepared from healthy donors who provided written informed consent at the local blood bank (University Hospital of Freiburg, Germany). Mononuclear cells were isolated by density gradient centrifugation according to standard protocol ([English and Andersen, 1974]) using lymphocyte separation medium, (PAN Biotech, Aidenbach). Cells were resuspended in RPMI-1640 medium (Invitrogen/Thermo Fisher Scientific, Karlsruhe) containing 10% human serum (Hexacell, Berlin). About 5 × 10^5 cells per milliliter were seeded in 24-well plates and incubated at 37°C and 5% CO2. The medium and the non-adherent cells were removed by washing with PBS and fresh RPMI medium, and 1% human serum was added to each well.
To test the anti-inflammatory effect of the test compounds, monocytes were incubated for 30 min with increasing doses of the test compounds. Then lipopolysaccharide (LPS) (10 ng/ml; Escherichia coli, Sigma-Aldrich, St. Louis) was added followed by a 24 h incubation period. The supernatants were removed and the levels of IL-1β, IL-6, IL-8, TNF-α, and prostaglandin E2 (PGE2) determined by enzyme-linked immunosorbent assay (ELISA) performed according to the manufacturer’s instructions (IL-1β from Hiss, Freiburg; IL-6, IL-8, and TNF-α from ImmunoTools, Friesoythe; and PGE2 from Cayman, distributed by Biozol, Hamburg). Stimulation with LPS alone was considered 100%.

RAW264.7 macrophages [4] = assay: MTT cytotoxicity assay; type: cell-based; conditions: RAW264.7, concentrations of 5 and 10 µmol/L
Text: Cytotoxicity tests were done on CHO cells, Jurkat T-cells, or RAW264.7 macrophages using the MTT assay (Sigma-Aldrich, St. Louis) and on primary human monocytes with the alamarBlue assay (Thermo Fisher Scientific, Karlsruhe).

CB1-receptor [5] = biological target: T2, CB1-receptor; assay: biochemical; type: binding; conditions: mean ± SEM, n = 3; radioligand [3H]-CP55940
NF-κB = assay: PMA-induced NF-κB-luc (KBF-luc) activation in Jurkat T-cells; type: cell-based; conditions: 0.5–25 µmol/L
Experimental: as §4, §3

RAW264.7 macrophages [6] = assay: IL-17-induced polarization to pro-inflammatory M1 macrophages (qPCR); type: cell-based; conditions: RAW264.7, 0.5 to 10 µmol/L
Experimental: To assess the IL-17-induced polarization to pro-inflammatory M1 macrophages, RAW264.7 macrophages (10^6 cells per Petri dish) were incubated for 18 h with or without the test compounds containing 0.1% FBS. Subsequently, they were stimulated for 24 h with recombinant murine IL-17 (50 ng/ml; R&D Systems, Minneapolis). The CB2-receptor agonist JWH-133 was used as a positive control. Then, the messenger RNA (mRNA) was extracted using RNeasy Mini Kits (Qiagen, Hilden), and its purity determined by UV measurements at 260 and 280 nm. The induction of IL-6, IL-1β, CC-chemokine ligand 2 (CCL2), and tumor necrosis factor (TNF)-α mRNA was assessed as markers of pro-inflammatory activity using quantitative real-time polymerase chain reactions (qPCRs).
mRNA reverse transcription in cDNA was performed with iQ™ SYBR Green Supermix and the CFX96 real-time PCR system (Bio-Rad, Hercules). The amplification consisted of a 5 min denaturation at 95°C followed by 40 cycles each of 30 s at 95°C and 30 s at 55°C (annealing). Elongation for 30 s at 72°C came next, followed by a cycle for 10 s at 83°C and finally a cycle for 1 min at 72°C. Calculations were made according to the Livak method by quantifying glyceraldehyde 3-phosphate dehydrogenase (GAPDH) as a reference ([Schmittgen and Livak 2008]). The results are given as multiples of the reference gene ([…]).

Row | SMILES | Selectivity CB2/CB1 (CB2-receptor [1]) | Effect on CB1 (CB1-receptor [2]) | CB2-receptor agonistic activity (fold induction of CRE-luc) (CB2-receptor [3]) | Effect on CB2 (CB2-receptor [3]) | CB2 agonistic effect compared with positive control WIN (CB2-receptor [3]) | Inhibition of PMA/IO-induced NFAT activation (NFAT) | LPS-induced IL-1β release (primary human monocytes; LPS 10 ng/ml, 24 h) | LPS-induced IL-6 release (primary human monocytes; LPS 10 ng/ml, 24 h) | LPS-induced TNF-α release (primary human monocytes; LPS 10 ng/ml, 24 h) | Ki (CB1-receptor [5]) | Ki (CB2-receptor [1]) | CB1-receptor antagonistic activity (fold induction of CRE-luc) (CB1-receptor [2]) | CB1-receptor agonistic activity (fold induction of CRE-luc) (CB1-receptor [2]) | Inhibition of PMA-induced NF-κB activation (NF-κB) | IL-17-stimulated CCL2 mRNA expression (RAW264.7 macrophages [6]) | IL-17-stimulated IL-1β mRNA expression (RAW264.7 macrophages [6]) | LPS-induced IL-8 release (primary human monocytes; LPS 10 ng/ml, 24 h) | other results
1 | C=C(C)[C@@H]1CCC(C)=C[C@H]1c1c(O)cc(CCCCC)c(C(=O)OCCO)c1O [2-HEC (1), 2-hydroxyethyl cannabidiolate] | 10.5 | Antagonist | dose dependency | Agonist | as strong as the same dose of the positive control | significantly inhibited | significantly inhibited | significantly inhibited | significantly inhibited | – | – | – | – | – | – | – | – | Effect on cell viability (RAW264.7 macrophages [4]): negative effect on cell viability
2 | C=C(C)[C@@H]1CCC(C)=C[C@H]1c1c(O)cc(CCC)c(C(=O)OCCO)c1O [2-HECBDV (7), 2-hydroxyethyl cannabidivarinolate] | 33.6 | Antagonist | dose-dependent agonistic effects | Agonist | – | – | – | – | – | 5.65 µM | 0.168 ± 0.0394 µM | – | – | – | – | – | – | –
3 | C=C(C)[C@@H]1CCC(C)=C[C@H]1c1c(O)cc(CCCCC)c(C(=O)OCC(O)CCC)c1O (some centres unmarked) [2-HPC (2), 2-hydroxypentyl cannabidiolate] | – | Antagonist | – | Agonist | – | significantly inhibited | – | significantly inhibited | significantly inhibited | – | – | – | – | – | – | – | – | LPS-stimulated IL-8 synthesis (primary human monocytes; dose of 1 µmol/L): inhibited; LPS-stimulated PGE2 synthesis (primary human monocytes; dose of 1 µmol/L): inhibited; Effect on cell viability (RAW264.7 macrophages [4]): negative effect on cell viability
4 | C=C(C)[C@@H]1CCC(C)=C[C@H]1c1c(O)cc(CCCCC)c(C(=O)OC2CCCCC2)c1O [CHC (4), cyclohexyl cannabidiolate] | 1.7 | Agonist | – | Agonist | as strong as the same dose of the positive control | did not inhibit | reduced | moderately and dose-dependently inhibited | reduced | 0.87 ± 0.1 µM | 0.51 ± 0.29 µM | negative | activate CB1-receptors | did not inhibit | inhibited | inhibited | moderately and dose-dependently inhibited | Anti-inflammatory effects overall (primary human monocytes; LPS 10 ng/ml, 24 h): only very weak anti-inflammatory effects
5 | C=C(C)[C@@H]1CCC(C)=C[C@H]1c1c(O)cc(CCC)c(C(=O)OC2CCCCC2)c1O [CHCBDV (8), cyclohexyl cannabidivarinolate] | 2.9 | Agonist | non-selective agonism | Agonist | – | – | – | – | – | 0.0132 ± 0.0009 µM | 0.00462 ± 0.0005 µM | – | non-selective agonism | – | – | – | – | –
6 | C=C(C)[C@@H]1CCC(C)=C[C@H]1c1c(O)cc(CCCCC)c(C(=O)OCCCCCC)c1O [HC (5), n-hexyl-cannabidiolate] | 37.3 | Antagonist | did not activate | No activity | – | no inhibition | inhibited at higher doses | dose-dependently inhibited | dose-dependently inhibited | 2.5 µM | 0.067 ± 0.004 µM | dose-dependent activity | – | only marginal | inhibited | inhibited | inhibited at higher doses | IL-17-stimulated IL-6 mRNA expression (RAW264.7 macrophages [6]): dose-dependent reduction
7 | C=C(C)[C@@H]1CCC(C)=C[C@H]1c1c(O)cc(CCC)c(C(=O)OCCCCCC)c1O [HCBDV (9), n-hexyl cannabidivarinolate] | 0.8 | Agonist | no effect | No activity | – | – | – | – | – | 0.0083 ± 0.00069 µM | 0.0099 ± 0.0025 µM | – | agonistic effects | – | – | – | – | –
8 | C=C(C)[C@@H]1CCC(C)=C[C@H]1c1c(O)cc(CCCCC)c(C(=O)OCCNS(C)(=O)=O)c1O [NMSC (6), 2-(methylsulfonamido)ethyl cannabidiolate] | 22.5 | Antagonist | – | Agonist | similarly strongly agonistic | significantly inhibited | enhanced | – | significantly reduced | 0.27 ± 0.04 µM | 0.012 ± 0.001 µM | dose-dependent activity; also recorded: strongly CB1 antagonistic | – | inhibited | reduced compared to the control at all concentrations | inhibited TNF-α and IL-1β only at low doses | significantly reduced | preference for the CB2-receptor (CB2-receptor [1]; CB2 over CB1): 22.5 fold; IL-17-stimulated IL-6 mRNA expression (RAW264.7 macrophages [6]): co-stimulated; IL-17-stimulated TNF-α mRNA expression (RAW264.7 macrophages [6]): inhibited TNF-α and IL-1β only at low doses; LPS-induced PGE2 release (primary human monocytes; LPS 10 ng/ml, 24 h): significantly reduced
